Assay [1] has as its system NMDA retinal damage model. Put plainly: NMDA retinal damage model, electroretinogram A and B waves. The format is in vivo, rats. How it is done:
NMDA retinal damage model: Changes in electroretinogram (ERG) A and B waves have been used as indicators of RGC damage. To examine RGC neuroprotection, 2 ul intravitreal injections of 10 mM NMDA, sufficient to change ERG A and B-waves within 2 weeks, were challenged with co-administered intravitreal (2 mM) or topical 100 mM MPDTE, MPSEDE and amifostine in normal rats unilaterally. For topical administration, rats were pretreated for 5 days prior and 3 days post-NMDA administration with the agents at a frequency of 3 times per day with 20 μl agent. Scotopic ERG changes were measured in normal rats. Rats were dark adapted for at least 4 hrs. Eyes were dilated with atropine after which proparacaine and methylcellulose gel were applied topically. Custom made AgCl electrodes (64-1317, Warner Instruments, Hamden, Conn.) were placed on the apex of the cornea. Stimuli consisted of 10-microsec flashes of unattenuated white light generated by Ganzfield bowl photo stimulator (Grass Instruments, PS22, Quincy, Mass.). Data from each eye was recorded separately with a driver amplifier (Grass Instruments, Model 7DAF Polygraph, Quincy, Mass.). Data was acquired digitally via DASYLab (Bedford, N.H.). The contralateral normal eye served as an age matched negative control, e.g. response in a normal, undamaged eye. Differences in amplitude of the A-wave and B-waves between the treated eye and the contralateral eye and between treatment groups were calculated.

Assay [2] deals with rat surgical glaucoma model (intraocular pressure). In words: Topical application of MP compounds, IOP measurements on rat surgical glaucoma model. The class given is in vivo, rats. The procedure:
Rat ocular hypertensive model: Ocular hypertension was induced in 9 male SpragueDawley rats, weighing between 400 to 500 grams. Under general anesthesia with acepromazine maleate (12 mg/Kg) and ketamine (80 mg/Kg), IP, and topical proparacaine (0.5%), dissection of the conjunctiva was made with fine cuts. To reduce the stimulus for revascularization or neovascularization, dissection of the right eye was limited to the area immediately surrounding the vortex veins. Three of four vortex veins were exposed and ligated using 9.0 nylon sutures. Criterion for inclusion into the study was an intraocular pressure (IOP) increase of 5 mm Hg or more when compared to […] baseline IOP. Within 6 weeks, the IOP of all the operated eyes increased at least 5 mm Hg compared to baseline. National Institutes of Health Guidelines and Association for Research in Vision and Opthalmology statement for the Use and Care of Animals were followed in this study.
Intraocular pressure (IOP) Measurements: Prior to initiation of treatment, baseline IOP was obtained in glaucoma rat models. IOP was measured via a specially modified Goldmann applanation tonometer (HAAG-STREIT, Bern, Switzerland) under sedation. Measurements are averages of two consecutive readings and were made at the same time of day and by the same observers.
Topical application of MP compounds for IOP measurements on rat surgical glaucoma model: Rats were treated topically with 20 μl of MP compounds (0.3-100 mM; n=3-6) on the operated eyes. The MP compounds were compared to 10 or 87 mM topical amifostine, a free radical scavenger. MP esterified chelators were diethylenetriaminepentaacetic acid (MPDTE) and MPSEDE.

Setting [3] is: Intravitreal agent (2 mM) co-administered with intravitreal 10 mM NMDA.
Where [4] appears, read: Topical agent (100 mM, 3 times per day, 5 days prior and 3 days post-NMDA), intravitreal 10 mM NMDA.

In the case of `CN[C@H](CC(=O)O)C(=O)O` [NMDA, N-methyl-D-aspartate, reference compound], in assay [1] (setting [3]), the A wave is 51.2 % Baseline and the B wave was 68.4 % Baseline. In assay [1] (setting [4]), the A wave was 51.2 % Baseline and the B wave is 68.4 % Baseline.
For “polyethylene glycol monomethyl ether [MP]”, the IOP reduction entry in assay [2] (administered alone or together, FIG. 10, not as great as with MPDTE) is listed as “reduction in IOP”.
“methoxypolyethlene glycol thioester of ethylenediaminetetraacetic acid methyl triester [MPSEDE]”: the IOP reduction result in assay [2] (single topical dose of 10-100 mM, operated eye, FIG. 5-7) is “significantly reduced IOP”. The A wave in assay [1] (setting [3]) was 76.2 % Baseline; in assay [1] (setting [4]), 95.9 % Baseline. Also, the B wave is listed as 69.6 % Baseline in assay [1] (setting [3]) and 93.7 % Baseline in assay [1] (setting [4]). Besides, the “reduction of NMDA damage” value in assay [1] (both intravitreal and topical administration (Table 1)) was “significantly reduced NMDA damage”; in assay [1] (co-administration with NMDA, at the dose tested), “trend to reduce NMDA damage, but this was not significant”.
Turning to `NCCCNCCSP(=O)(O)O` [amifostine, S-2-[3-aminopropylamino] ethylphosphorothioate], the IOP reduction entry in assay [2] (topical 10 mM or 87 mM) was “No reduction in IOP”.
